# US20090324700A1, “METHODS AND COMPOSITIONS FOR THE INHIBITION OF CATHEPSINS” (priority 2003, published 2009)
# Residues, ends and D or L forms follow the SMILES beside them. *: point of attachment. Cbz = O=C(OCc1ccccc1)*; CH2F = FC*
# What was measured:
# cathepsin B = target: T1, cathepsin B (Mus musculus, UniProt P10605); assay: Cathepsin B activity in crude cytoplasmic extracts, RelA^−/− MEFs; assay type: cell-based
# T1 construct: endogenous in cells; host or cells: RelA-/- or RelA+/+ MEFs (retrovirally transduced with GFP, RelA, Spi2A or antisense Spi2A)
# Experimental: Survival Assays. Although RelA^−/− MEFs are markedly more sensitive to TNF-α compared to RelA^+/+ MEFs, low levels of CHX (0.1 μg/ml) were used in the survival assays. This was to suppress any protective activity of constitutively active non-RelA NF-κB molecules that are present in RelA^−/− MEFs (FIG. 4). Thus, RelA^−/− MEFs were treated with CHX and TNF-α (R&D) and the number of live GFP-positive adherent cells was counted by flow cytometry after 16 h, if not indicated otherwise. Live cells were defined as those that excluded propidium iodide (PI-negative) and had the appropriate size, as defined by forward and side scatter characteristics (Coligan et al., 1995). For RelA^+/+ MEFs, TNF-α-cytotoxicity was determined after 16 h with CHX (10 μg/ml), if not indicated otherwise. Cathepsin B activity was inhibited by a 1 h pre-treatment of MEFs with CA-074 Me (30 μM) (Peptide Institute). […] RelA^−/− MEFs were treated with (10-50 μM) sphingosine (Calbiochem) and the number of live GFP-positive adherent cells was counted by flow cytometry after 2 h.
# Death effector assays. Death effector pathways were induced in […] MEFs by treatment TNF-α (0.2 ng/ml) and CHX (0.1 μg/ml). […] Protein concentration was determined by Lowry assay (DC-protein assay kit, Biorad). […]
# Colorimetric assays for capases were performed in reaction buffer (50 mM HEPES, pH 7.4, 100 mM NaCl, 10 mM DTT, 1 mM EDTA, 10% glycerol, 0.1% CHAPS) at 37° C. on crude cytoplasmic extracts using p-Nitoaniline (pNA)-labeled substrates (Calbiochem) specific for caspases 3 and 7 (Ac-DEVD-pNA), caspase 8 (Ac-IETD-pNA), caspase 9 (Ac-LEHD-pNA), each at 0.2 mM. Specific activity was determined by subtracting the apparent activity detected after 1 h pre-incubation of extract with the pan-caspase inhibitor Z-VAD.fmk at 50 μM (ICN Biomedicals Inc), then normalizing for the amount of protein. […] Specific activity was determined by subtracting the apparent activity detected after 30 min pre-incubation of extract at 37° C. with the cathespin B inhibitor CA-074 Me at 30 μM (Peptide Institute) then normalizing for the amount of protein.
# RelA^−/− MEFs = assay: Survival assay, TNF-α and CHX, RelA^−/− MEFs; assay type: cell-based, mouse; conditions: CHX 0.1 μg/ml
# caspase activity = assay: Caspase activity enzyme assay, NIH3T3 cells; assay type: cell-based; conditions: Z-VAD.fmk 50 μM, 1 h pre-treatment; verified by enzyme assay
# Experimental: (§1) TNF-α death assays. NIH3T3 cells were transduced with MIGR1 retrovirus (Zhang and Ren, 1998) encoding either GFP alone, or Spi2A in the forward (sense) or reverse (antisense) orientation and stable clones generated, as described previously (Liu et al., 2003). Cells were treated with TNF-α (R&D) and after 16 h the number of live GFP-positive adherent cells were counted by flow cytometry (Liu et al., 2003). Live cells were defined as those that excluded propidium iodide (PI-negative) and had the appropriate size, as defined by forward and side light scatter characteristics. Caspase activity was inhibited by pre-treatment of cells or extracts for 1 h with Z-VAD.fmk (ICN Biomedicals Inc; 50 μM). […] In anti-sense experiments the level of Spi2A mRNA was quantitated by real-time PCR using primers and probes specific for Spi2A (Inglis et al., 1991) and cyclofilin A control mRNA (Medhurst et al., 2000), 4 h after treatment with Z-VAD.fmk ([…]) and TNF-α (10 ng/ml), as described previously (Liu et al., 2003).
# NIH3T3 cells = assay: TNF-α death assays, NIH3T3 cells; assay type: cell-based; conditions: Z-VAD.fmk 50 μM, TNF-α 10 ng/ml, 16 h; FIG. 9A
# Experimental: as §1
# T1 sequence (P10605 80-333): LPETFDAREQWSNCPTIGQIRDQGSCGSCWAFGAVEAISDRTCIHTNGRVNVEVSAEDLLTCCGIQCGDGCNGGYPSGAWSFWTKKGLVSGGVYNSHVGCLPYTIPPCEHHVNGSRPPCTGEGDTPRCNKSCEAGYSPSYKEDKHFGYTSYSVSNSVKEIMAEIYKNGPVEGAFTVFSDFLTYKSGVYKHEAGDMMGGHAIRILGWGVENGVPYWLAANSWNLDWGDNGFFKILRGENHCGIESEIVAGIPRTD
compound,measurement,setting,value
"CCCNC(=O)[C@H]1O[C@@H]1C(=O)N[C@H](C(=O)N1CCC[C@H]1C(=O)OC)[C@@H](C)CC [CA-074 Me, reference compound]",Inhibition of cathepsin B activity in MEFs,"cathepsin B; CA-074 Me 30 μM, 1 h pre-treatment, verified by enzyme assay",complete inhibition
same,Protection from TNF-α-induced death (percentage survival),"RelA^−/− MEFs; CA-074 Me 30 μM, TNF-α 0.5 ng/ml, FIG. 1A",protected
RelA: human RelA (p65) cDNA expressed from MIGR1 retrovirus in RelA^−/− MEFs [reference compound],"Cytosolic cathepsin B activity after TNF-α, retrovirally transduced cells","cathepsin B; TNF-α 0.2 ng/ml, CHX 0.1 μg/ml, FIG. 1C, 7A",extinguished
same,"Percentage survival after TNF-α and CHX, retrovirally transduced cells vs GFP","RelA^−/− MEFs; 16 h, FIG. 1B, 2B",complete protection
"COC(=O)C[C@H](NC(=O)[C@H](C)NC(=O)[C@@H](NC(=O)OCc1ccccc1)C(C)C)C(=O)CF [Z-VAD.fmk, reference compound] (Cbz-Val-Ala-Asp(OMe)-CH2F)",Inhibition of caspase activity,caspase activity,complete inhibition
same,Sensitization to PCD by TNF-α (percentage survival),NIH3T3 cells,sensitized
